From patent US20140315883A1, “6H-IMIDAZO[1,5-a]PYRROLO[2,3-e]PYRAZINE COMPOUNDS” (ABBVIE INC., priority 2013, published 2014)

Molecular target: T1, Syk (Homo sapiens, UniProt P43405)
T1 construct: Purified Syk catalytic domain (aa 356-635 with a C-terminal His-tag purified in-house); His-tag (C); made in house
Test: In vitro Syk kinase activity measured by trFRET
Type: biochemical
Settings: Syk catalytic domain, 0.001 mM ATP
Method: In Vitro Syk Kinase Activity Measured by Time-Resolved Fluorescence Resonance Energy Transfer (trFRET)
After about 60 min incubation at rt, the reaction was quenched by addition of EDTA (final concentration: 100 mM) and developed by addition of revelation reagents (final approximate concentrations: 30 mM HEPES pH 7.0, 0.06% BSA, 0.006% Tween-20, 0.24 M KF, 80 ng/mL PT66K (europium labeled anti-phosphotyrosine antibody cat #61T66KLB Cisbio, Bedford, Mass.) and 0.6 μg/mL SAXL (Phycolink streptavidin-allophycocyanin acceptor, cat #PJ25S, Prozyme, San Leandro, Calif.). The developed reaction was incubated in the dark either at about 4° C. for about 14 h or for about 60 min at rt, then read via a time-resolved fluorescence detector (Rubystar, BMG) using a 337 nm laser for excitation and monitoring emission wavelengths at 665 nm. Within the linear range of the assay, the observed signal at 665 nm was directly related to phosphorylated product and can be used to calculate the IC50 values.

Compound | IC50 [nM]
CC(=O)N1C[C@H](O)C[C@@H]1c1nc(-c2ccc(N3CCOCC3)cc2)c2cnc3[nH]cc(Cl)c3n12 [F.1.10, 1-((2R,4R)-2-(8-chloro-3-(4-morpholinophenyl)-6H-imidazo[1,5-a]pyrrolo[2,3-e]pyrazin-1-yl)-4-hydroxypyrrolidin-1-yl)ethanone] | < 10
CCOc1ccc(-c2nc([C@H]3C[C@@H](O)CN3C(C)=O)n3c2cnc2[nH]cc(Cl)c23)cc1 [F.1.11, 1-((2R,4R)-2-(8-chloro-3-(4-ethoxyphenyl)-6H-imidazo[1,5-a]pyrrolo[2,3-e]pyrazin-1-yl)-4-hydroxypyrrolidin-1-yl)ethanone] | 10 to 30
CC(=O)N1C[C@H](O)C[C@@H]1c1nc(-c2ccc(OCCN3CCOCC3)cc2)c2cnc3[nH]ccc3n12 [F.1.12, 1-((2R,4R)-4-hydroxy-2-(3-(4-(2-morpholinoethoxy)phenyl)-6H-imidazo[1,5-a]pyrrolo[2,3-e]pyrazin-1-yl)pyrrolidin-1-yl)ethanone] | 10 to 30
COc1ccc(-c2nc([C@H]3C[C@@H](O)CN3C(C)=O)n3c2cnc2[nH]cc(C)c23)cc1 [F.1.14] | 30 to 100
CC(=O)N1C[C@H](O)C[C@@H]1c1nc(-c2ccc(C(C)(C)O)cc2)c2cnc3[nH]ccc3n12 [F.1.15, 1-((2R,4R)-4-hydroxy-2-(3-(4-(2-hydroxypropan-2-yl)phenyl)-6H-imidazo[1,5-a]pyrrolo[2,3-e]pyrazin-1-yl)pyrrolidin-1-yl)ethanone] | < 10
CC(=O)N1C[C@H](O)C[C@@H]1c1nc(-c2ccc(C(C)(C)C#N)cc2)c2cnc3[nH]ccc3n12 [F.1.16, 2-(4-(1-((2R,4R)-1-acetyl-4-hydroxypyrrolidin-2-yl)-6H-imidazo[1,5-a]pyrrolo[2,3-e]pyrazin-3-yl)phenyl)-2-methylpropanenitrile] | < 10
CC(=O)N1C[C@H](O)C[C@@H]1c1nc(-c2ccc(C3CCOCC3)cc2)c2cnc3[nH]ccc3n12 [F.1.18, 1-((2R,4R)-4-hydroxy-2-(3-(4-(tetrahydro-2H-pyran-4-yl)phenyl)-6H-imidazo[1,5-a]pyrrolo[2,3-e]pyrazin-1-yl)pyrrolidin-1-yl)ethanone] | < 10
CC(=O)N1C[C@H](O)C[C@@H]1c1nc(-c2ccc3c(c2)CCCO3)c2cnc3[nH]ccc3n12 [F.1.19, 1-((2R,4R)-2-(3-(chroman-6-yl)-6H-imidazo[1,5-a]pyrrolo[2,3-e]pyrazin-1-yl)-4-hydroxypyrrolidin-1-yl)ethanone] | 10 to 30
COc1ccc(-c2nc([C@H]3C[C@@H](O)CN3C(C)=O)n3c2cnc2[nH]ccc23)cc1OC [F.1.20, 1-((2R,4R)-2-(3-(3,4-dimethoxyphenyl)-6H-imidazo[1,5-a]pyrrolo[2,3-e]pyrazin-1-yl)-4-hydroxypyrrolidin-1-yl)ethanone] | < 10

Results, then the compound that gave them:

IC50 [nM] | Compound
< 10 | CC(=O)N1C[C@H](O)C[C@@H]1c1nc(-c2ccc(N3CCOC(C)C3)cc2)c2cnc3[nH]ccc3n12 (stereo partly drawn) [F.1.7, 1-((2R,4R)-4-hydroxy-2-(3-(4-(2-methylmorpholino)phenyl)-6H-imidazo[1,5-a]pyrrolo[2,3-e]pyrazin-1-yl)pyrrolidin-1-yl)ethanone]
< 10 | CC(=O)N1C[C@H](O)C[C@@H]1c1nc(-c2ccc(N3CCC(F)(F)CC3)cc2)c2cnc3[nH]ccc3n12 [F.1.8, 1-((2R,4R)-2-(3-(4-(4,4-difluoropiperidin-1-yl)phenyl)-6H-imidazo[1,5-a]pyrrolo[2,3-e]pyrazin-1-yl)-4-hydroxypyrrolidin-1-yl)ethanone]
< 10 | CC(=O)N1C[C@H](O)C[C@@H]1c1nc(-c2ccc(N3CC(F)(F)C3)cc2)c2cnc3[nH]ccc3n12 [F.1.9, 1-((2R,4R)-2-(3-(4-(3,3-difluoroazetidin-1-yl)phenyl)-6H-imidazo[1,5-a]pyrrolo[2,3-e]pyrazin-1-yl)-4-hydroxypyrrolidin-1-yl)ethanone]
< 10 | CC(=O)N1C[C@H](O)C[C@@H]1c1nc(-c2ccc(N3CCOCC3)cc2)c2cnc3[nH]ccc3n12 [F.1.17, 1-((2R,4R)-4-hydroxy-2-(3-(4-morpholinophenyl)-6H-imidazo[1,5-a]pyrrolo[2,3-e]pyrazin-1-yl)pyrrolidin-1-yl)ethanone]
